For data set [1], the target named is T1, Adenosine kinase (Homo sapiens, UniProt P55263). Put plainly: Inhibition of adenosine kinase in intact cells assessed as adenosine phosphorylation. Format: functional, cell-based.
Data set [2] relates to Rattus norvegicus. Put plainly: Reduction of formalin-induced nociception in rat at 10 umol/kg, ip by paw flinching test. Also noted: scale not given: the % may be the effect or the level left. Format: functional.
The target in data set [3] is T1, Adenosine kinase. Put plainly: Inhibition of cytosolic adenosine kinase.
Data set [4] in a line: Volume of distribution in rat at 5 umol/kg, iv. Format: ADME, organism-based. As to conditions: in vivo, read-out: Vbeta.
The nature of data set [5]: Cmax in rat at 5 umol/kg, po. Format: ADME, organism-based. Also noted: dose 5 umol/kg, route oral. The conditions noted are these: in vivo.
For data set [6], the species on record is Rattus norvegicus. The experiment in a line: Analgesic activity in spinal nerve ligated Sprague-Dawley rat by chung assay neuropathic pain animal model. Format: functional, organism-based.
A further data set concerns Mus musculus. The experiment in a line: Analgesic activity in mouse assessed as maximal protective effect at 30 umol/kg, ip by hot plate test. Format: functional.
A short description of data set [7]: Metabolic stability in rat hepatocyte after 24 hrs. Format: ADME, cell-based. As to conditions: hepatocytes, read-out: Stability.
A short description of data set [8]: Half life in rat at 5 umol/kg, iv. The conditions noted are these: in vivo. Format: ADME, organism-based.
Data set [9] can be described thus: Metabolic stability in human liver microsomes after 1 hr. The conditions noted are these: read-out: Stability. Format: ADME, Microsome. For orientation: Liver microsomes are vesicles of endoplasmic reticulum, rich in cytochrome P450 enzymes.
A short description of data set [10]: Bioavailability in rat at 5 umol/kg, po. Format: ADME, organism-based. The conditions noted are these: in vivo.
A short description of data set [11]: Plasma clearance in rat at 5 umol/kg, iv. Format: ADME, organism-based.
Data set [12] relates to Rattus norvegicus. The experiment in a line: Reduction of formalin-induced nociception in rat upto 30 umol/kg, ip by paw flinching test. Format: functional, organism-based.

Consider 38 molecules from ChEMBL document CHEMBL1142899, “4-amino-5-aryl-6-arylethynylpyrimidines: structure-activity relationships of non-nucleoside adenosine kinase inhibitors” (Bioorg Med Chem, 2007).

SMILES strings stand for the structures. Calls of active or inactive are those of the source. No cut-off for these calls is given here.

Usually IC50 stands for the concentration at which inhibition is half-maximal. What is called Cmax is the peak of the concentration-time curve. Broadly, the half-life is how long it takes for the measured level to halve. For orientation: bioavailability means the share of a dose that reaches the circulation, judged against a reference dose that is usually intravenous. The clearance is the volume of plasma or blood freed of the substance per unit of time.

T1 sequence (P55263 whole entry): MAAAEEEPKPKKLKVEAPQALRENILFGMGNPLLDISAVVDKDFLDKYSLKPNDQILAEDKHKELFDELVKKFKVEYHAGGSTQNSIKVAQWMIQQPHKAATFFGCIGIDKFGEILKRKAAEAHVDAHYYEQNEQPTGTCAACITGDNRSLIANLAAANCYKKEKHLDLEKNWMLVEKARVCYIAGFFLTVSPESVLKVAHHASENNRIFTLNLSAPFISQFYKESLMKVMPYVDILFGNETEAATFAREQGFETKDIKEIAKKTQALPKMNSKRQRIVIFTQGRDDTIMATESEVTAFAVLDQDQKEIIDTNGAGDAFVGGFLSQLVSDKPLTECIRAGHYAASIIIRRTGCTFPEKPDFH

Regarding `Nc1ncnc(C#Cc2ccc(N3CCOCC3)nc2)c1-c1ccc2c(c1)OCO2`, the 50% inhibitory concentration (IC50) at Adenosine kinase [1] turned out to be 120 nM; against Adenosine kinase [3], 10 nM. The molecule also returned an Activity in the data set with Rattus norvegicus [2] of 47%.

Consider `CC(C)NC(=O)Nc1cc(C#Cc2ncnc(N)c2-c2ccc3c(c2)OCO3)cnc1N1CCOCC1`, for which the IC50 at Adenosine kinase [1] was found to be 88 nM; at Adenosine kinase [3], 18 nM.

Regarding `Nc1ncnc(C#Cc2ccc(N3CCOCC3)nc2)c1-c1ccsc1`, the results for the IC50 at Adenosine kinase [1] and against Adenosine kinase [3] were 212 nM and 38 nM, respectively.

For `Nc1ncnc2nc(-c3ccc(N4CCOCC4)nc3)cc(-c3cccc(Br)c3)c12`, the Vd in data set [4] turned out to be 1 L/kg. This molecule also gave a Cmax in data set [5] of 550 ng/mL.

As to `CN(C)c1ccc(C#Cc2ncnc(N3CCOCC3)c2-c2ccc(Cl)cc2)cc1`, the values for the IC50 at Adenosine kinase [1] and against Adenosine kinase [3] were 970 nM and 6 nM, respectively.

In the case of `CN(C)c1ccc(C#Cc2ncnc(N)c2-c2ccc(Cl)cc2)cn1`, the result in the data set listed under Rattus norvegicus [6] was inactive. Also, the Activity in the data set on Rattus norvegicus [2] was found to be 20%; in the data set on Mus musculus, 73%.

Consider `CN(C)c1cc(N2CCOCC2)ncc1C#Cc1ncnc(N)c1-c1ccc2c(c1)OCO2`, for which the IC50 at Adenosine kinase [1] came out at 215 nM; against Adenosine kinase [3] it was 72 nM.

For the molecule `CN(C)c1ccc(-c2c(N)ncnc2C#Cc2ccc(N3CCOCC3)nc2)cc1`, the Vd in data set [4] was determined as 0.7 L/kg. For the same molecule, the remaining at 24 h in data set [7] came out at 21%. Also, in [8], the half-life is 30 min. For the same molecule, the Activity turned out to be 44% in the data set on Rattus norvegicus [2] and 100% in the data set with Mus musculus. Besides, in data set [5], the Cmax came out at 80 ng/mL. For the same molecule, the remaining at 1 h in data set [9] is 74%. The molecule further had a bioavailability in data set [10] of 9%. Also, the midpoint of inhibition against Adenosine kinase [3], the IC50, lay at 2 nM. Besides, the clearance in data set [11] was 16.7 mL/min/kg.

Turning to `CN(C)c1ccc(C#Cc2ncnc(N)c2-c2ccccc2)cc1`, the IC50 on Adenosine kinase [1] is greater than 1000 nM.

The molecule `CN(C)c1ccc(C#Cc2cc(N)ncn2)cc1` registered an IC50 against Adenosine kinase [3] greater than 1000 nM.

For the molecule `CN(C)c1ccc(C#Cc2ncnc(N)c2-c2ccc3c(c2)OCO3)cc1`, the IC50 at Adenosine kinase [1] came to 250 nM.

`Nc1ncnc(C#Cc2ccc(N3CCOCC3)nc2)c1-c1cc2ccccc2o1`: the IC50 at Adenosine kinase [1] was determined as 123 nM; against Adenosine kinase [3], 1 nM. The molecule further displayed an Activity in the data set with Rattus norvegicus [2] of 36%.

As to `Nc1ncnc(C#Cc2ccc(N3CCOCC3)nc2)c1-c1cc2ccccc2s1`, the results for the IC50 on Adenosine kinase [1] and at Adenosine kinase [3] were 100 nM and 0.4 nM, respectively. For the same molecule, the Activity in the data set on Rattus norvegicus [2] is given as 49%.

Molecule `C#Cc1ncnc(N)c1-c1ccc2c(c1)OCO2` yielded an IC50 at Adenosine kinase [3] greater than 1000 nM.

Consider `Nc1ncnc(C#Cc2ccc(N3CCOCC3)cc2)c1-c1ccc(Cl)cc1`, for which the figures for the IC50 at Adenosine kinase [1] and on Adenosine kinase [3] were 275 nM and 17 nM, respectively. For the same molecule, the Activity in the data set with Rattus norvegicus [2] was 20%; in the data set on Mus musculus it was 67%.

In turn, `CN(C)c1ccc(C#Cc2ncnc(N)c2C(c2ccccc2)c2ccccc2)cc1` came in with an IC50 against Adenosine kinase [3] of 600 nM.

On to `CN(C)c1ccc(C#Cc2ncnc(N)c2-c2ccccc2Cl)cc1`, for which the IC50 is 700 nM at Adenosine kinase [1] and 75 nM against Adenosine kinase [3].

In the case of `COc1ccc(-c2c(N)ncnc2C#Cc2ccc(N(C)C)cc2)cc1OC`, the IC50 came out at 500 nM on Adenosine kinase [1] and 20 nM against Adenosine kinase [3].

In the case of `Nc1ncnc(C#Cc2ccc(N3CCOCC3)nc2)c1-c1ccc(Cl)cc1`, in the data set listed under Rattus norvegicus [6], the outcome was inactive. The IC50 at Adenosine kinase [1] turned out to be 58 nM; on Adenosine kinase [3], 3 nM. Moreover, the Activity with Rattus norvegicus [2] came out at 29%; in the data set with Mus musculus, 100%.

For `CN(C)c1ccc(C#Cc2ncnc(N3CCNCC3)c2-c2ccc(Cl)cc2)cc1`, the IC50 at Adenosine kinase [1] is greater than 1000 nM; against Adenosine kinase [3], 8 nM.

Regarding `CC(C)c1ccc(C#Cc2ncnc(N)c2-c2ccc(Cl)cc2)cc1`, the values for the IC50 at Adenosine kinase [1] and against Adenosine kinase [3] were greater than 1000 nM and 50 nM, respectively.

As to `Nc1ncnc(C#Cc2ccc(N3CCOCC3)nc2)c1-c1cccs1`, the values for the IC50 on Adenosine kinase [1] and at Adenosine kinase [3] were 167 nM and 13 nM, respectively. For the same molecule, the Activity in the data set on Rattus norvegicus [2] was found to be 44%.

With `CN(C)c1ccc(C#Cc2cc(NCc3ccccc3)ncn2)cc1`, the IC50 against Adenosine kinase [3] is greater than 1000 nM.

As to `Nc1ncnc(C#Cc2cnc(N3CCOCC3)nc2)c1-c1ccc(Cl)cc1`, the result in the data set listed under Rattus norvegicus [6] was inactive. Also, the IC50 was found to be 200 nM at Adenosine kinase [1] and 8 nM against Adenosine kinase [3]. The Activity with Rattus norvegicus [2] turned out to be 36%; in the data set with Mus musculus, 100%.

Take `COCCN(C)c1ccc(C#Cc2ncnc(N)c2-c2ccc(Cl)cc2)cn1`: the IC50 at Adenosine kinase [1] was 80 nM; on Adenosine kinase [3], 1 nM. Besides, the Activity in the data set with Rattus norvegicus [2] was found to be 48%.

Turning to `Nc1ncnc(C#Cc2ccccn2)c1-c1ccc(Cl)cc1`, the IC50 is greater than 1000 nM at Adenosine kinase [1] and 500 nM on Adenosine kinase [3].

Turning to `Cc1ccc(-c2c(N)ncnc2C#Cc2ccc(N(C)C)cc2)cc1`, the values for the IC50 at Adenosine kinase [1] and against Adenosine kinase [3] were 330 nM and 13 nM, respectively.

The molecule `Cc1nc(N)c(-c2ccccc2)c(C#Cc2ccc(N(C)C)cc2)n1` gave an IC50 at Adenosine kinase [3] greater than 1000 nM.

With `Nc1ncnc(C#Cc2cncc(N3CCOCC3)c2)c1-c1ccc(Cl)cc1`, the IC50 on Adenosine kinase [1] worked out at 110 nM; against Adenosine kinase [3], 8 nM. Further, the Activity in the data set on Rattus norvegicus [2] came to 49%.

As to `CN(C)c1cc(C#Cc2ncnc(N)c2-c2ccc3c(c2)OCO3)cnc1N1CCOCC1`, the IC50 on Adenosine kinase [1] was determined as 161 nM; against Adenosine kinase [3], 26 nM. In addition, in the data set on Rattus norvegicus [12], the result was inactive.

As to `CN(C)c1ccc(C#Cc2ncnc(N)c2-c2cccc(Cl)c2)cc1`, the values for the IC50 on Adenosine kinase [1] and on Adenosine kinase [3] were 550 nM and 10 nM, respectively.

Turning to `CN(C)c1ccc(C#Cc2ncnc(NCCc3c[nH]cn3)c2-c2ccc(Cl)cc2)cc1`, the IC50 at Adenosine kinase [1] is greater than 1000 nM; against Adenosine kinase [3] it was 80 nM.

For `CN(C)c1ccc(C#Cc2ncnc(NCCc3c[nH]c4ccccc34)c2-c2ccc(Cl)cc2)cc1`, the figures for the IC50 on Adenosine kinase [1] and at Adenosine kinase [3] were greater than 1000 nM and 38 nM, respectively.

In the case of `CN(C)c1ccc(C#Cc2ncnc(N)c2-c2ccc(N(C)C)cc2)cc1`, the IC50 at Adenosine kinase [1] came out at 240 nM; against Adenosine kinase [3], 5 nM.

`COCCN(C)c1cc(N2CCOCC2)ncc1C#Cc1ncnc(N)c1-c1ccc2c(c1)OCO2`: the figures for the IC50 on Adenosine kinase [1] and against Adenosine kinase [3] were 198 nM and 101 nM, respectively.

For the molecule `CC(C)(C)OC(=O)N1CCN(c2ccc(C#Cc3ncnc(N)c3-c3ccc(Cl)cc3)cn2)CC1`, the IC50 on Adenosine kinase [1] is greater than 1000 nM; against Adenosine kinase [3] it was 62 nM.

Turning to `CN(C)c1ccc(C#Cc2ncnc(N(C)C)c2-c2ccc(Cl)cc2)cc1`, the IC50 was greater than 1000 nM on Adenosine kinase [1] and 300 nM on Adenosine kinase [3].

With `Nc1ncnc(C#Cc2ccc(N3CCOCC3)nn2)c1-c1ccc(Cl)cc1`, the results for the IC50 at Adenosine kinase [1] and against Adenosine kinase [3] were 700 nM and 45 nM, respectively.
